Measured values reported in ChEMBL document CHEMBL1201862, “PubChem BioAssay data set” (2004).
Activity calls are given as the source filed them.

Legend:
Protein RecA = target: T1, Protein RecA (Mycobacterium tuberculosis, UniProt P9WHJ3); assay: Fluorescence Cell-Free Homogeneous Dose Retest to Identify Inhibitors of RecA-Intein Splicing Activity. [Related pubchem assays (depositor defined):AID2097, AID2223, AID489010, AID492950]; assay type: functional
T1 sequence (P9WHJ3 whole entry): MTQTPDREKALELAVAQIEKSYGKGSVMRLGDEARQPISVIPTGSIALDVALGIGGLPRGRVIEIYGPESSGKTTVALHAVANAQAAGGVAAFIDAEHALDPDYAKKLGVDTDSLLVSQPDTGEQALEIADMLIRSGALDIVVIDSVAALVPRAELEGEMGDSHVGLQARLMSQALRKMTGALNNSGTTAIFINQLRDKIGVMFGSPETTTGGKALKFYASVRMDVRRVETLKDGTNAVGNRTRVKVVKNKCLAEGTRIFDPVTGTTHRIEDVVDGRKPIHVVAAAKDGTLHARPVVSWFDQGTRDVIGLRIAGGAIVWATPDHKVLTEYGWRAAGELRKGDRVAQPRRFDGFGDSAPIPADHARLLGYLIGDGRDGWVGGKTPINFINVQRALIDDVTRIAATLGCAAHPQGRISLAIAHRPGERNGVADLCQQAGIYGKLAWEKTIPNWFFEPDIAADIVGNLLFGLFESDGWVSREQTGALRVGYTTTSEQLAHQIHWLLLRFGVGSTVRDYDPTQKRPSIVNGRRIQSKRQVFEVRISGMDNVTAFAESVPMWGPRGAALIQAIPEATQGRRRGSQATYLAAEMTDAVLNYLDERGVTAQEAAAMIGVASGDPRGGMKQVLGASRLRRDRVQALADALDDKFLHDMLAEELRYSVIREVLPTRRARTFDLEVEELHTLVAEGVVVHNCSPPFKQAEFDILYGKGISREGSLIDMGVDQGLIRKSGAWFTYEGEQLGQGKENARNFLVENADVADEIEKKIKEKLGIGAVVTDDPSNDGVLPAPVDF

[1] = target: T2, Sentrin-specific protease 8 (Homo sapiens, UniProt Q96LD8); assay type: functional;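 also: luminescence read-out of SENP8 inhibition, dose-response confirmation following an ultra-high-throughput screen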
T2 sequence (Q96LD8 whole entry): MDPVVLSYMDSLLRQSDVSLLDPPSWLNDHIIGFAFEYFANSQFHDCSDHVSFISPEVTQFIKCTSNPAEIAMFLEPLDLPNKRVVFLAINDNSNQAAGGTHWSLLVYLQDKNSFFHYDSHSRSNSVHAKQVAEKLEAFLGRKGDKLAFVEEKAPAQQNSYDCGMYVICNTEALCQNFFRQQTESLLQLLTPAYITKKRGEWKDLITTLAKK

[2] = target: T3, Tyrosyl-DNA phosphodiesterase 2 (Homo sapiens, UniProt O95551); assay: human TDP2 enzyme inhibitors, dose response, biochemical, epi absorbance, IC50 (AID 743297)
T3 sequence (O95551 whole entry): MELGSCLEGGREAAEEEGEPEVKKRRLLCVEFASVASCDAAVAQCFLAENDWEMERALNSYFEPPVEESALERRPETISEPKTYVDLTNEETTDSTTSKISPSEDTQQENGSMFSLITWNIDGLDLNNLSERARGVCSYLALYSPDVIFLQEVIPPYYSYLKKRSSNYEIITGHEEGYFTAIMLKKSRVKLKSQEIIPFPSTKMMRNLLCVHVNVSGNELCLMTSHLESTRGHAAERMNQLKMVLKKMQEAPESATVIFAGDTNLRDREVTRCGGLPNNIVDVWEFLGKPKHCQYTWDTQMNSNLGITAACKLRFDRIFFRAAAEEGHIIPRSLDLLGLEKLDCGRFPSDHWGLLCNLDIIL

[3] = target: T4, Replicative DNA helicase DnaB (Mycobacterium tuberculosis, UniProt P9WMR3); assay: DnaB intein splicing inhibitors, dose response, biochemical, cell-free fluorescence (AID 449749); assay type: functional
T4 sequence (P9WMR3 whole entry): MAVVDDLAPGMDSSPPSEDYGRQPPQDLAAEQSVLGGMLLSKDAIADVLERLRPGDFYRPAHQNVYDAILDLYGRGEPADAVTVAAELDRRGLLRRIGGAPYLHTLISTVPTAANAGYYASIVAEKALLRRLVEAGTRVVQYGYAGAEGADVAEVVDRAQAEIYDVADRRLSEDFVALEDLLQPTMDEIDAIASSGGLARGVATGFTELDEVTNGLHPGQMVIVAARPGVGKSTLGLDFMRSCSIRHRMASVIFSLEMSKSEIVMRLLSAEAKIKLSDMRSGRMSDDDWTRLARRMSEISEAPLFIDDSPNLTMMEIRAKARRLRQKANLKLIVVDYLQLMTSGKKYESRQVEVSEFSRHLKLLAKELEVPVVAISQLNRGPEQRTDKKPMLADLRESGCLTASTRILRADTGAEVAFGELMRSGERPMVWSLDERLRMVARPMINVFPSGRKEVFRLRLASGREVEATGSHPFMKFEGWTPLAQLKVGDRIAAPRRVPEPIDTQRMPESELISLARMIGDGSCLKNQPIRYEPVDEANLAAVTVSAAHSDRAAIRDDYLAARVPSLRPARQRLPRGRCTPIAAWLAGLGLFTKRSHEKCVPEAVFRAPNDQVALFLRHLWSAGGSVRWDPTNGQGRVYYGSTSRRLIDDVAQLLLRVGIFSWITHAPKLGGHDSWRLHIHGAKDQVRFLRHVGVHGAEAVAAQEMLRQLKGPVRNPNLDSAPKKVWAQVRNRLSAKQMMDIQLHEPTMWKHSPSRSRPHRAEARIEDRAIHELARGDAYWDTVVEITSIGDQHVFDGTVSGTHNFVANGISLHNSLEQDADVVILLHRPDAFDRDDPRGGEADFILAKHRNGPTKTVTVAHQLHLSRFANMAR

INS1 = assay: beta cell apoptosis inhibitors, cytokine rescue, dose response, luminescence, retest (AID 449756); assay type: functional, cell-based; details: Rattus norvegicus;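 also: cell death triggered by IL-1 beta plus TNF-alpha plus IFN-gamma mixture; protective hits raise ATP signal compared with cytokine alone wells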

SMILES	EC50 (Protein RecA)	IC50 [1]	IC50 [2]	AC50 [3]	AC50 (INS1)
Nc1ccc(N2CCCCC2)c2nonc12	2.76 µM (active)	10.2 µM (active)	79.7 µM (inactive)	5.14 µM (active)	–
COc1ccc(NC(=O)/C(Cl)=C(/Cl)[S+]([O-])Cc2ccccc2)cn1 (configuration not stated)	3.14 µM (active)	–	–	3.35 µM (active)	1.1 µM (active)
Cc1ccc(S(=O)(=O)/N=C2\C=C(Nc3cccc(C(=O)O)c3)C(=O)c3ccccc32)c(C)c1	15 µM (active)	1.78 µM (active)	2.58 µM (active)	27 µM (active)	6.82 µM (active)
